The NIST ThermoML archive (doi:10.1021/acs.jced.6b01013)
Numbers after ± are expanded uncertainties.

Assay: xn = mol fraction of the nth substance listed
Settings: 100 kPa, Liquid, Pycnometric method

Row | SMILES | mass density (293.15 K, x2 = 0.75) | mass density (293.15 K, x2 = 0.8) | mass density (293.15 K, x2 = 0.83) | mass density (303.15 K, x2 = 0.75) | mass density (303.15 K, x2 = 0.8) | mass density (303.15 K, x2 = 0.83) | mass density (313.15 K, x2 = 0.75) | mass density (313.15 K, x2 = 0.8) | mass density (313.15 K, x2 = 0.83) | mass density (323.15 K, x2 = 0.75) | mass density (323.15 K, x2 = 0.8) | mass density (323.15 K, x2 = 0.83) | further results
1 | COc1ccccc1O [2-methoxyphenol] + C[N+](C)(C)CCO.[Cl-] |  |  |  |  |  |  |  |  |  |  |  |  | mass density (293.15 K, x1 = 0.75): 1153.3 ± 4 kg/m3; mass density (293.15 K, x1 = 0.8): 1155.6 ± 4 kg/m3; mass density (293.15 K, x1 = 0.83): 1149.7 ± 4.1 kg/m3; mass density (303.15 K, x1 = 0.75): 1147.5 ± 4 kg/m3; mass density (303.15 K, x1 = 0.8): 1147.7 ± 4 kg/m3; mass density (303.15 K, x1 = 0.83): 1143.4 ± 4.1 kg/m3; mass density (313.15 K, x1 = 0.75): 1141.2 ± 4 kg/m3; mass density (313.15 K, x1 = 0.8): 1140.6 ± 4 kg/m3; mass density (313.15 K, x1 = 0.83): 1136.2 ± 4.1 kg/m3; mass density (323.15 K, x1 = 0.75): 1134.1 ± 4.1 kg/m3; mass density (323.15 K, x1 = 0.8): 1132.4 ± 4.1 kg/m3; mass density (323.15 K, x1 = 0.83): 1128 ± 4.1 kg/m3
2 | CC(=O)OCC[N+](C)(C)C.[Cl-] [acetylcholine chloride] + COc1ccccc1O | 1149.6 ± 4 kg/m3 | 1149.3 ± 4 kg/m3 | 1152.7 ± 4 kg/m3 | 1146.1 ± 4 kg/m3 | 1144.8 ± 4 kg/m3 | 1148.1 ± 4 kg/m3 | 1139.8 ± 4 kg/m3 | 1138.1 ± 4 kg/m3 | 1142.5 ± 4 kg/m3 | 1133.8 ± 4 kg/m3 | 1131.7 ± 4 kg/m3 | 1135.1 ± 4 kg/m3 | 
3 | CCNCC.Cl [diethylammonium chloride] + COc1ccccc1O | 1095.4 ± 4 kg/m3 | 1102.4 ± 4 kg/m3 | 1106.1 ± 4 kg/m3 | 1093.1 ± 4 kg/m3 | 1098.3 ± 4 kg/m3 | 1103.5 ± 4 kg/m3 | 1083.7 ± 4 kg/m3 | 1089.8 ± 4 kg/m3 | 1093.7 ± 4 kg/m3 | 1075.8 ± 4.1 kg/m3 | 1084.1 ± 4 kg/m3 | 1083.5 ± 4 kg/m3 | 
